Data from ChEMBL document CHEMBL1147423, “Synthesis and antifungal activities of phenylenedithioureas” (2004).
≈ marks a conversion by molar mass, not a printed value.

Columns and labels:
Trichophyton benhamiae = assay: Minimum inhibitory concentration against Trichophyton mentagrophytes; format: functional, Arthroderma benhamiae
Arthroderma uncinatum = assay: Minimum inhibitory concentration against Trichophyton ajelloi; format: functional
Pseudomonas aeruginosa = assay: Minimum inhibitory concentration against Pseudomonas aeruginosae ATCC 27853; format: functional
Aspergillus niger = assay: Minimum inhibitory concentration against Aspergillus niger; format: functional
Escherichia coli = assay: Minimum inhibitory concentration against Escherichia coli ATCC 25853; format: functional
Candida albicans = assay: Minimum inhibitory concentration against Candida albicans ATCC 10231; format: functional
Enterococcus faecalis = assay: Minimum inhibitory concentration against Streptococcus faecalis ATCC 29212; format: functional
Aspergillus flavus = assay: Minimum inhibitory concentration against Aspergillus flavus; format: functional
Staphylococcus aureus = assay: Minimum inhibitory concentration Staphylococcus aureus ATCC 29213; format: functional
Paraphyton cookei = assay: Minimum inhibitory concentration against Microsporum cookei; format: functional
Nannizzia gypsea = assay: Minimum inhibitory concentration Microsporum gypseum; format: functional
Nannizzia nana = assay: Minimum inhibitory concentration against Microsporum nanum; format: functional

SMILES	MIC (Trichophyton benhamiae) [µg/mL]	MIC (Arthroderma uncinatum) [µg/mL]	MIC (Pseudomonas aeruginosa) [µg/mL]	MIC (Aspergillus niger) [µg/mL]	MIC (Escherichia coli) [µg/mL]	MIC (Candida albicans) [µg/mL]	MIC (Enterococcus faecalis) [µg/mL]	MIC (Aspergillus flavus) [µg/mL]	MIC (Staphylococcus aureus) [µg/mL]	MIC (Paraphyton cookei) [µg/mL]	MIC (Nannizzia gypsea) [µg/mL]	MIC (Nannizzia nana) [µg/mL]
O=C(O)c1ccc(/N=C(\S)Nc2cccc(/N=C(/S)Nc3ccc(C(=O)O)c(O)c3)c2)cc1O	32 (≈ 64.2 µM)	32 (≈ 64.2 µM)	> 512	≥ 512	512 (≈ 1030 µM)	> 512	> 512	≥ 512	256 (≈ 513 µM)	8 (≈ 16 µM)	64 (≈ 128 µM)	64 (≈ 128 µM)
CCOC(=O)c1ccc(/N=C(\S)Nc2cccc(/N=C(/S)Nc3ccc(C(=O)OCC)cc3)c2)cc1	64 (≈ 122 µM)	256 (≈ 490 µM)	> 512	≥ 512	512 (≈ 980 µM)	> 512	> 512	≥ 512	512 (≈ 980 µM)	256 (≈ 490 µM)	64 (≈ 122 µM)	256 (≈ 490 µM)
O=C(O)c1ccc(/N=C(\S)Nc2ccc(/N=C(\S)Nc3ccc(C(=O)O)cc3)cc2)cc1	32 (≈ 68.6 µM)	128 (≈ 274 µM)	512 (≈ 1100 µM)	≥ 512	> 512	512 (≈ 1100 µM)	512 (≈ 1100 µM)	≥ 512	> 512	128 (≈ 274 µM)	32 (≈ 68.6 µM)	128 (≈ 274 µM)
CC(C)OC(=O)c1ccc(/N=C(\S)Nc2cccc(/N=C(/S)Nc3ccc(C(=O)OC(C)C)cc3)c2)cc1	32 (≈ 58.1 µM)	64 (≈ 116 µM)	> 512	≥ 512	512 (≈ 930 µM)	> 512	> 512	≥ 512	512 (≈ 930 µM)	16 (≈ 29.1 µM)	64 (≈ 116 µM)	8 (≈ 14.5 µM)
O=C(NNc1ccccc1)c1ccc(NC(=S)Nc2ccc(NC(=S)Nc3ccc(C(=O)NNc4ccccc4)cc3)cc2)cc1	16 (≈ 24.7 µM)	128 (≈ 198 µM)	512 (≈ 792 µM)	≥ 512	512 (≈ 792 µM)	> 512	512 (≈ 792 µM)	≥ 512	128 (≈ 198 µM)	16 (≈ 24.7 µM)	64 (≈ 98.9 µM)	8 (≈ 12.4 µM)
COC(=O)c1ccc(/N=C(\S)Nc2cccc(/N=C(/S)Nc3ccc(C(=O)OC)cc3)c2)cc1	64 (≈ 129 µM)	64 (≈ 129 µM)	> 512	≥ 512	512 (≈ 1040 µM)	> 512	> 512	≥ 512	512 (≈ 1040 µM)	64 (≈ 129 µM)	128 (≈ 259 µM)	128 (≈ 259 µM)
O=C(O)c1ccc(N/C(S)=N\c2ccccc2/N=C(/S)Nc2ccc(C(=O)O)cc2)cc1	32 (≈ 68.6 µM)	16 (≈ 34.3 µM)	512 (≈ 1100 µM)	≥ 512	> 512	> 512	512 (≈ 1100 µM)	≥ 512	> 512	32 (≈ 68.6 µM)	32 (≈ 68.6 µM)	16 (≈ 34.3 µM)
O=C(NNc1ccccc1)c1ccc(/N=C(\S)Nc2ccc(/N=C(/S)Nc3ccc(C(=O)NNc4ccccc4)c(O)c3)cc2)cc1O	32 (≈ 47.1 µM)	32 (≈ 47.1 µM)	512 (≈ 754 µM)	≥ 512	512 (≈ 754 µM)	512 (≈ 754 µM)	512 (≈ 754 µM)	≥ 512	512 (≈ 754 µM)	64 (≈ 94.3 µM)	128 (≈ 189 µM)	64 (≈ 94.3 µM)
O=C(O)c1ccc(N/C(S)=N\c2ccccc2/N=C(/S)Nc2ccc(C(=O)O)c(O)c2)cc1O	8 (≈ 16 µM)	32 (≈ 64.2 µM)	512 (≈ 1030 µM)	≥ 512	> 512	512 (≈ 1030 µM)	512 (≈ 1030 µM)	≥ 512	> 512	32 (≈ 64.2 µM)	16 (≈ 32.1 µM)	32 (≈ 64.2 µM)
O=C(N[C@H](CO)[C@H](O)c1ccc([N+](=O)[O-])cc1)C(Cl)Cl [CHLORAMPHENICOL]	–	–	512 (≈ 1580 µM)	≥ 512	–	–	–	≥ 512	128 (≈ 396 µM)	–	–	–
CC(=O)N1CCN(c2ccc(OC[C@H]3CO[C@](Cn4ccnc4)(c4ccc(Cl)cc4Cl)O3)cc2)CC1 [KETOCONAZOLE]	16 (≈ 30.1 µM)	16 (≈ 30.1 µM)	–	≥ 512	–	128 (≈ 241 µM)	–	≥ 512	–	8 (≈ 15.1 µM)	16 (≈ 30.1 µM)	16 (≈ 30.1 µM)
